Data as given in US9932339B2, “Helquats with heteroaromatic substituents, preparation thereof, and use thereof as G-quadruplex stabilizers” (USTAV ORGANICKE CHEMIE A BIOCHEMIE AV CR, V.V.I., priority 2014, dated 2018).

Test system: c-Myc27 oligonucleotide G-quadruplex
Test: ECD melting curve of c-Myc27 oligonucleotide G-quadruplex with ligands
Type: binding
Conditions: ECD at 263 nm; molar ratio oligonucleotide:ligand 1:1 (5 μmol l^−1 each); Li+-cacodylate buffer
Description: ECD spectra were measured on J-815 spectrometer (Jasco, Japan). Measurement settings (Tab. 3), spectra saving and background subtraction was performed in a Spectra Manager software (Jasco, Japan).
For measurement of the temperature dependencies the cuvettes in the cuvette compartment were placed in the Peltier module, the temperature was controlled by the Spectra Manager software. Melting curves were measured at a wavelength which corresponds to the maximum difference in signal intensity of ECD spectra of oligonucleotide at 25 and 95° C., as shown in FIG. 1. Before and after measuring the melting curves, ECD spectra in extreme temperatures were measured, in order to verify the stability of the studied system.
Processing of the spectra was performed using Spectra Manager (Jasco, Japan). The resulting spectra were obtained from the measured sample spectrum after subtraction of background spectrum, which was spectrum of the solvent. Measuring of sample spectrum and background was conducted under identical conditions. ECD spectra are reported as ellipticity, labeled in the CD figures [mdeg], whose numerical value is associated with dimensionless circular dichroism ΔA (CDv=32980 ΔAv). This CD notations preserves conventions of the international journals in which articles from the field are published.
Stock solution of […] was prepared from c-Myc27 oligonucleotide by dissolution in H2O. The cuvette of 1 mm thickness was filled with 7 μl of oligonucleotide solution and 133 μl of Li^+-cacodylate buffer. Oligonucleotide solution in the cuvette was overlayed with mineral oil to measure temperature dependencies without concentration changes due to evaporation of the solvent at higher temperatures.
From stock solutions of the racemic ligands in DMSO at a concentration of […] solutions were prepared at a concentration of 140 μmol l^−1 by dissolving in H2O. Ligands were added to the solution of oligonucleotide under buffer/mineral oil interface using Hamilton microsyringe (5 μl of solution at a concentration of […]). The resulting molar ratio of oligonucleotide:ligand was 1:1.
The cuvette filled with c-Myc27 oligonucleotide solution in Li^+-cacodylate buffer (cc-Myc27=5 μmol l^−1) was first heated for 5 minutes at 95° C., at this temperature ECD spectrum was measured. Then the sample was cooled to 25° C., allowed to stabilize for 10 min and then ECD spectrum was measured again. Then, the melting curve of ECD oligonucleotide at 263 nm was measured in the temperature range 25-95° C. and for verification of the stability of the sample spectra the spectra were measured again at 95 and 25° C. Under the oil layer ligand solution (cligand=5 μmol l^−1) was added to a solution of oligonucleotide, the sample was thoroughly mixed and ECD spectrum measured at 25° C., the melting curve was obtained and again control spectra were measured at 95 and 25° C.
Decomposition of the G-quadruplex structure in the presence of ligands under influence of temperature was monitored at the wavelength corresponding to the maximum difference in signal intensities of ECD oligonucleotide/ligand at 25 and 95° C., i.e. at 263 nm. Thermal stability of G-quadruplex was monitored in the range of 25 to 95° C. and in a molar ratio of oligonucleotide:ligand=1:1. Example of influence of the studied ligand on the stability of G-quadruplex formed from c-Myc27 oligonucleotide is shown in FIG. 2.
The degree of G-quadruplex stabilization was expressed as change of melting temperature caused by the presence of G-quadruplex ligands (ΔTm): ΔTm=Tm,oligonucleotide+ligand−Tm,oligonucleotide (1), • where Tm,oligonucleotide+ligand is melting temperature of molecular system comprising the oligonucleotide and the ligand and Tm,oligonucleotide, the melting temperature of the oligonucleotide itself. Tab. 4 summarizes the changes in melting temperatures of c-Myc27 oligonucleotide G-quadruplex in the presence of studied ligands.

Cc1c(C)c2c(c3c1CC[n+]1ccc(/C=C/c4cccc5c4oc4ccccc45)cc1-3)-c1c3ccccc3cc[n+]1CC2 (racemic) [MJA-C13-8, (rac)-(E)-13-(2-(dibenzo[b,d]furan-4-yl)vinyl)-6,7-dimethyl-4,5,8,9-tetrahydroisoquinolino[1,2-a]pyrido[1,2-k][2,9]phenanthroline-3,10-diium trifluoromethanesulfonate]
ΔTm (° C.): 6.8 °C
